ChEMBL document CHEMBL2346515, “Discovery of 4-alkylamino-7-aryl-3-cyanoquinoline LRRK2 kinase inhibitors” (Bioorg Med Chem Lett, 2013)

Key:
[1] = test system: Brain; test: Drug uptake in brain of mouse expressing mouse LRRK2 G2019S mutant at 30 mg/kg, po; type: ADME, organism-based; set-up: dose 30 mg/kg, route oral; conditions: in vivo
[2] = molecular target: T1, Aurora kinase A (Homo sapiens) (UniProt O14965); test: Inhibition of AURKA (unknown origin) at 10 uM by single point assay
T1 sequence (whole entry): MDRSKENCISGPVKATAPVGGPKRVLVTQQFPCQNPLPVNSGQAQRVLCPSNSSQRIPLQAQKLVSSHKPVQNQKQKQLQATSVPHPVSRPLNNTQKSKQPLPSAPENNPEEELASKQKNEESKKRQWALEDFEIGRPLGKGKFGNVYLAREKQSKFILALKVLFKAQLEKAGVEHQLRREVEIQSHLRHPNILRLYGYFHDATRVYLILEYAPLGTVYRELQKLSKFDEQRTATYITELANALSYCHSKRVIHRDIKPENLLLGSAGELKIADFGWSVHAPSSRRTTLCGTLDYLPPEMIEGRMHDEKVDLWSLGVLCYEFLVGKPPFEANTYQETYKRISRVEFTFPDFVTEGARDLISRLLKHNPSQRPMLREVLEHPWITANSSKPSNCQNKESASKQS

[3] = molecular target: Serine/threonine-protein kinase PLK2 (Homo sapiens) (UniProt Q9NYY3); test: Inhibition of PLK2 (unknown origin) at 10 uM by single point assay
Serine/threonine-protein kinase PLK2 (Homo sapiens), sequence (Q9NYY3 whole entry, looked up): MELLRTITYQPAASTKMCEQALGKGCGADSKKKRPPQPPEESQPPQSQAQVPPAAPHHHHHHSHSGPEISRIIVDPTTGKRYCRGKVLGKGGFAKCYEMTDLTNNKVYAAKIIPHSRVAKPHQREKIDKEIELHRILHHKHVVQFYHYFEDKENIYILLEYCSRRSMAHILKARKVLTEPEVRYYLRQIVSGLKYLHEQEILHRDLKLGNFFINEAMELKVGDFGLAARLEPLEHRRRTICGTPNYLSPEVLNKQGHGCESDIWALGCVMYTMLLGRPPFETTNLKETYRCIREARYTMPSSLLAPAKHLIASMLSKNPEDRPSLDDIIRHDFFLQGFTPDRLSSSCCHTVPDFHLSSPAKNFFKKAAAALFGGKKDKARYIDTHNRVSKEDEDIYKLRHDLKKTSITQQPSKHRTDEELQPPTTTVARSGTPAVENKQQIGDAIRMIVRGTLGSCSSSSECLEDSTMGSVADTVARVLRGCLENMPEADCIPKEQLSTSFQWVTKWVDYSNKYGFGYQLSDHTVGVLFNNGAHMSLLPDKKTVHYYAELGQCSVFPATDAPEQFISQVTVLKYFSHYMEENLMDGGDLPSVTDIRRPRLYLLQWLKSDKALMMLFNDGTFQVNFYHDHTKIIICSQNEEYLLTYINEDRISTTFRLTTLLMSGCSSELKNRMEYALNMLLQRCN

[4] = molecular target: Receptor-interacting serine/threonine-protein kinase 2 (Homo sapiens) (UniProt O43353); test: Inhibition of RIPK2 (unknown origin) at 10 uM by single point assay
Receptor-interacting serine/threonine-protein kinase 2 (Homo sapiens), sequence (O43353 whole entry): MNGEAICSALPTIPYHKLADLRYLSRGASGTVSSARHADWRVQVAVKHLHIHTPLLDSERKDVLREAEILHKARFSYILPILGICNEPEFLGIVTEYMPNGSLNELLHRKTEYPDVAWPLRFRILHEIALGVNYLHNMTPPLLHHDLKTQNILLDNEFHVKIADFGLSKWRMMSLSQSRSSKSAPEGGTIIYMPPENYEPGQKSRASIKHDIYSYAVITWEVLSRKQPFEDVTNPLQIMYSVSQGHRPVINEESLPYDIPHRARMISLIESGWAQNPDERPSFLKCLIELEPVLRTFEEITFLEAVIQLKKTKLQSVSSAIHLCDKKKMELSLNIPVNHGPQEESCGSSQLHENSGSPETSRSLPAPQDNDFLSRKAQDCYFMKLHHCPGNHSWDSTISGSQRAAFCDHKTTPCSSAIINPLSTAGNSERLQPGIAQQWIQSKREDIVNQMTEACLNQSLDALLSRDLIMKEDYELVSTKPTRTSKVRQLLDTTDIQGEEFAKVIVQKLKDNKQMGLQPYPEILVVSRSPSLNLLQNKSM

[5] = molecular target: Tyrosine-protein kinase ABL1 (Homo sapiens) (UniProt P00519); test: Inhibition of ABL1 (unknown origin) at 10 uM by single point assay
Tyrosine-protein kinase ABL1 (Homo sapiens), sequence (P00519 whole entry): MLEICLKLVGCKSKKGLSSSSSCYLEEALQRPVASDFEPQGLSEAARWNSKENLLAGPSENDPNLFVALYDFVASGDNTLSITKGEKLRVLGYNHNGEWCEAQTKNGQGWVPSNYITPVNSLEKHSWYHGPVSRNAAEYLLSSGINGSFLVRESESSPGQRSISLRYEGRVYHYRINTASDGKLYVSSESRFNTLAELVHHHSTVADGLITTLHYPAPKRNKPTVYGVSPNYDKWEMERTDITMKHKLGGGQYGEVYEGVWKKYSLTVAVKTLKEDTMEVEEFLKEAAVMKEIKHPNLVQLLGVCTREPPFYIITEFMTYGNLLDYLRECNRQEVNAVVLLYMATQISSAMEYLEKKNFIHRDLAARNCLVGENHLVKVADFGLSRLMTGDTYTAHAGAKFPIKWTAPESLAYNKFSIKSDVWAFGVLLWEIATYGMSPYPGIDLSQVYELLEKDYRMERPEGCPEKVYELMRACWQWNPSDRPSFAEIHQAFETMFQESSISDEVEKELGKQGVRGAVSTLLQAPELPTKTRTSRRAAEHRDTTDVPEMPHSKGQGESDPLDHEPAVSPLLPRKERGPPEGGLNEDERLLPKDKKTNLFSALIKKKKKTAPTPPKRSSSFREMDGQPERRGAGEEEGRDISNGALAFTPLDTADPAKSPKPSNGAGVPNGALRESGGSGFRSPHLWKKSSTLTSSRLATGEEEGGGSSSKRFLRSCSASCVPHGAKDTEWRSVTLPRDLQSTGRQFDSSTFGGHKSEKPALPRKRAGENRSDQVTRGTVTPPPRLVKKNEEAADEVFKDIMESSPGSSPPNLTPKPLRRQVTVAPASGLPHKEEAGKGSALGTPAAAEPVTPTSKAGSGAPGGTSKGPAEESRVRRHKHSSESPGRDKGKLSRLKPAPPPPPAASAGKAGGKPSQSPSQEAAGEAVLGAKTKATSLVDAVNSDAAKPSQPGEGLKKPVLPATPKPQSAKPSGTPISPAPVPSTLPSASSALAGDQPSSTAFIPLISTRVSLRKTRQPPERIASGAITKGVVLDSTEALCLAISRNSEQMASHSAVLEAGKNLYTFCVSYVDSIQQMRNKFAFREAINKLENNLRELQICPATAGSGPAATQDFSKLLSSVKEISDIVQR

[6] = molecular target: Cyclin-dependent kinase 5/CDK5 activator 1 (Homo sapiens) (UniProt Q00535+Q15078); test: Inhibition of CDK5/p25 (unknown origin) at 10 uM by single point assay; type: protein-complex assay
Cyclin-dependent kinase 5/CDK5 activator 1 (Homo sapiens), sequence (Q00535 whole entry): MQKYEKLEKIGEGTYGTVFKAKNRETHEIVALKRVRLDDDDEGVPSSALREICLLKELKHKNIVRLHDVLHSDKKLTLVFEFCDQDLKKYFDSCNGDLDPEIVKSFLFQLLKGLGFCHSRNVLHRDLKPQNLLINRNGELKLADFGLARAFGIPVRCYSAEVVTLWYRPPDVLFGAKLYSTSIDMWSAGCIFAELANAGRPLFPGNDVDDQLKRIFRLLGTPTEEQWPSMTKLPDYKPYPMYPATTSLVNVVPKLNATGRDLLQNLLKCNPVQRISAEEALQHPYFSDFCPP
Cyclin-dependent kinase 5/CDK5 activator 1 (Homo sapiens), sequence (Q15078 99-307 partner limits assumed): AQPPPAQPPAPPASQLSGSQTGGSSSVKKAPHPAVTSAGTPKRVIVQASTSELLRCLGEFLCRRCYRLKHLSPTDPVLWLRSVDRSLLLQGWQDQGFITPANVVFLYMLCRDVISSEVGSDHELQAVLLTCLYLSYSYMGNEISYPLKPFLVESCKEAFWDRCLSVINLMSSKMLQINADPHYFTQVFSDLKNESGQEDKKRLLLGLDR

[7] = molecular target: Serine/threonine-protein kinase PLK3 (Homo sapiens) (UniProt Q9H4B4); test: Inhibition of PLK3 (unknown origin) at 10 uM by single point assay
Serine/threonine-protein kinase PLK3 (Homo sapiens), sequence (Q9H4B4 whole entry, looked up): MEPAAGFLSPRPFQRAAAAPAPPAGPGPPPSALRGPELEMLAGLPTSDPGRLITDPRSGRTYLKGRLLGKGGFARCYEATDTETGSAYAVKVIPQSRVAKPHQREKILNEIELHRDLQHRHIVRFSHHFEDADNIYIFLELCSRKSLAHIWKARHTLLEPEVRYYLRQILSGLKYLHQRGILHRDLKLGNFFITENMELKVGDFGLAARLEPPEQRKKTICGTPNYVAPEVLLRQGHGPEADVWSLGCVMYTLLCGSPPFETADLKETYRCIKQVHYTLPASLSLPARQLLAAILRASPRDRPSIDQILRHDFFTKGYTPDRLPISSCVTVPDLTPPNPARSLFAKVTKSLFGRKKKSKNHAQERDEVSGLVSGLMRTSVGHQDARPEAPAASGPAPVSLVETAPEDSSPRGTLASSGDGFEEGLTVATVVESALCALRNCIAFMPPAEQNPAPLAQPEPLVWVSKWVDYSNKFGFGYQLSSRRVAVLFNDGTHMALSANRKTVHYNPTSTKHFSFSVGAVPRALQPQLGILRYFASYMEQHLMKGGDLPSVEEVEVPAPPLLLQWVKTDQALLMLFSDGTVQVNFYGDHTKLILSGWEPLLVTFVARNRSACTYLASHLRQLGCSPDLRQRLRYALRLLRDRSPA

| SMILES | Drug uptake [1] [ng/mL] | inhibition [2] [%] | inhibition [3] [%] | inhibition [4] [%] | inhibition [5] [%] | inhibition [6] [%] | inhibition [7] [%] |
| --- | --- | --- | --- | --- | --- | --- | --- |
| CC(C)Nc1c(C#N)cnc2cc(-c3cnn(C)c3)ccc12 | 4 | – | – | – | – | – | – |
| C[C@@H](Nc1c(C#N)cnc2cc(-c3ccc(-n4ccoc4=O)cc3)ccc12)C1CC1 | – | 67 | 54 | 56 | 30 | 5 | 6 |
